The values below are quoted from earlier work in paper PMC9851200, “Multiparameter phenotypic screening for endogenous TFEB and TFE3 translocation identifies novel chemical series modulating lysosome function” (Autophagy, 2022).

The structures appear in SMILES notation.

Common to all, as to design: method as in original PKIS2 published data
Series [1] deals with kinases (KINOMEscan panel) (Homo sapiens, UniProt Q96J92). Conditions: WNK4; Published KINOMEscan; ref original PKIS2 published data; cited from earlier work.
The target of series [2] is kinases (KINOMEscan panel) (Homo sapiens, UniProt Q13557). The following applies: kinase CAMK2D; Published KINOMEscan; ref original PKIS2 published data; cited from earlier work.
The target of series [3] is kinases (KINOMEscan panel) (Homo sapiens, UniProt Q9UPE1). Conditions: SRPK3; Published KINOMEscan; ref original PKIS2 published data; cited from earlier work.
In series [4] the target is T1, kinases (KINOMEscan panel) (Homo sapiens, UniProt Q9UKI8).
T1 sequence (Q9UKI8 1-766): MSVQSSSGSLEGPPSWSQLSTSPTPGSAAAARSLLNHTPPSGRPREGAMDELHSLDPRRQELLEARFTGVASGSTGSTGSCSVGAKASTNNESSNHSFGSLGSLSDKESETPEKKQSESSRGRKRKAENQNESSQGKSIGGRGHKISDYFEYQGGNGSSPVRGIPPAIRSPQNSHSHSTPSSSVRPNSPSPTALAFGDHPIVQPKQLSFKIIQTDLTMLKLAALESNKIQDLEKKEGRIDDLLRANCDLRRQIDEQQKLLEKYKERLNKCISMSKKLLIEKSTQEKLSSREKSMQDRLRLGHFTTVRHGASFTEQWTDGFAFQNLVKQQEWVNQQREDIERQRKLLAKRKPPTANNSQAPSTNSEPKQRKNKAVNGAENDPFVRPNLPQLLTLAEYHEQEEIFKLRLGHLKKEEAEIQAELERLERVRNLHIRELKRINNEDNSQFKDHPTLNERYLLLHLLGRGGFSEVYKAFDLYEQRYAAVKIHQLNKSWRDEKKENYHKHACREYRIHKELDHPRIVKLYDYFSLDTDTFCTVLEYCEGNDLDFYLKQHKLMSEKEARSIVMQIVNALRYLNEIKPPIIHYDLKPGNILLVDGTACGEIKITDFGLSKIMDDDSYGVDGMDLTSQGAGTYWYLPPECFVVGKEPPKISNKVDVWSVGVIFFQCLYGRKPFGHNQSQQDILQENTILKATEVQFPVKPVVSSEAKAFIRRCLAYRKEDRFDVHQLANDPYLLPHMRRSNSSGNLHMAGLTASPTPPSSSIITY
Conditions: kinase TLK1; Published KINOMEscan; ref original PKIS2 published data; cited from earlier work.

The target in series [5] is kinases (KINOMEscan panel) (Homo sapiens, UniProt Q00532). Conditions: CDKL1; Published KINOMEscan; ref original PKIS2 published data; cited from earlier work.
Series [6] deals with T2, kinases (KINOMEscan panel) (Homo sapiens, UniProt P51817).
T2 sequence (P51817 1-358): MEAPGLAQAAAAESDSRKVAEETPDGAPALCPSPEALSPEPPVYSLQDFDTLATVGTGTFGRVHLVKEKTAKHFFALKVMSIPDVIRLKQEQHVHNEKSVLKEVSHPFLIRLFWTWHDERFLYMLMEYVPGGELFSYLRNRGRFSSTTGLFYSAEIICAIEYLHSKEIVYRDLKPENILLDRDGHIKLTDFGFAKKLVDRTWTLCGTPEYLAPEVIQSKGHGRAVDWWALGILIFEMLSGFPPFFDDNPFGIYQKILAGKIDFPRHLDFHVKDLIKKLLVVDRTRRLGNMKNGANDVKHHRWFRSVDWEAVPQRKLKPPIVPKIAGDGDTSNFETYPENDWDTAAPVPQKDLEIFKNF
The following applies: kinase PRKX; Published KINOMEscan; ref original PKIS2 published data; cited from earlier work.

Series [7] addresses kinases (KINOMEscan panel) (Homo sapiens, UniProt P10721). The following applies: Published KINOMEscan, ref original PKIS2 published data, cited from earlier work.
Series [8] has as its target T3, kinases (KINOMEscan panel) (Homo sapiens, UniProt Q9BXA7).
T3 sequence (Q9BXA7 1-367): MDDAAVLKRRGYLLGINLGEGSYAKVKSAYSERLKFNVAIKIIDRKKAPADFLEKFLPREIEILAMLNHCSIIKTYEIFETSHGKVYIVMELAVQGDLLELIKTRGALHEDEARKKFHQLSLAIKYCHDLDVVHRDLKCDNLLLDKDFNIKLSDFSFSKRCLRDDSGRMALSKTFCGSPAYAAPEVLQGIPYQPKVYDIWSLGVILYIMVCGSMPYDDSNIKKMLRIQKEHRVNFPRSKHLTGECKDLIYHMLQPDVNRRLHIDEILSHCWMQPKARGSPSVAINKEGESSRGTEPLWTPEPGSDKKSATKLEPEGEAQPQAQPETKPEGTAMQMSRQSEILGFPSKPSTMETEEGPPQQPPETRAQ
The following applies: kinase TSSK1B; Published KINOMEscan; ref original PKIS2 published data; cited from earlier work.

Chain of kinases (KINOMEscan panel) (Homo sapiens, UniProt P10721) (P10721 26-976): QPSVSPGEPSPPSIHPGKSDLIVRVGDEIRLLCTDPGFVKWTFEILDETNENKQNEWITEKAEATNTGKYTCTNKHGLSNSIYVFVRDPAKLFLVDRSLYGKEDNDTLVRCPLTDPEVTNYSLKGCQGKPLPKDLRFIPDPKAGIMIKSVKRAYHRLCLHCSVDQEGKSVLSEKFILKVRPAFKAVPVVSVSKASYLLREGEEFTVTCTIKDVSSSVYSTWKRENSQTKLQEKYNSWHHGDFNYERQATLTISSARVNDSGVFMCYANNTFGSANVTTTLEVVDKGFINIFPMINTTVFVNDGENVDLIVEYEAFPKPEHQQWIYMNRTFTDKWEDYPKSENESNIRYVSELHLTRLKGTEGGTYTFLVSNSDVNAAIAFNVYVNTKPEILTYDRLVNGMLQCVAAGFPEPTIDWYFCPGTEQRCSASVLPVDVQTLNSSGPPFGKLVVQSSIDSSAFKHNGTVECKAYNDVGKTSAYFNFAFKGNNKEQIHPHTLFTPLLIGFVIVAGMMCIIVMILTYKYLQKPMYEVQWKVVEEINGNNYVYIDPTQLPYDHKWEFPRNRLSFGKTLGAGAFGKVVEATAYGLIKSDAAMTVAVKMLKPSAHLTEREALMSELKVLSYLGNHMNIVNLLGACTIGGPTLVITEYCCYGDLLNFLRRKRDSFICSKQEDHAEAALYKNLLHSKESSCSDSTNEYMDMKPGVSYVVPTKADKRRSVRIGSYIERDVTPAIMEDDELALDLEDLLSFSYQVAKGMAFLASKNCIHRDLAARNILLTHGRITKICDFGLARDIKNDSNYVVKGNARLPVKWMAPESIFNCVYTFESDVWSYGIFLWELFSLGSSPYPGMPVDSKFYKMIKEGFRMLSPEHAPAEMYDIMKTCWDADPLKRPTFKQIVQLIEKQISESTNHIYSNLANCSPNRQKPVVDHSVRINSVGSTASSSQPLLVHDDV
Chain of kinases (KINOMEscan panel) (Homo sapiens, UniProt Q96J92) (Q96J92 whole entry): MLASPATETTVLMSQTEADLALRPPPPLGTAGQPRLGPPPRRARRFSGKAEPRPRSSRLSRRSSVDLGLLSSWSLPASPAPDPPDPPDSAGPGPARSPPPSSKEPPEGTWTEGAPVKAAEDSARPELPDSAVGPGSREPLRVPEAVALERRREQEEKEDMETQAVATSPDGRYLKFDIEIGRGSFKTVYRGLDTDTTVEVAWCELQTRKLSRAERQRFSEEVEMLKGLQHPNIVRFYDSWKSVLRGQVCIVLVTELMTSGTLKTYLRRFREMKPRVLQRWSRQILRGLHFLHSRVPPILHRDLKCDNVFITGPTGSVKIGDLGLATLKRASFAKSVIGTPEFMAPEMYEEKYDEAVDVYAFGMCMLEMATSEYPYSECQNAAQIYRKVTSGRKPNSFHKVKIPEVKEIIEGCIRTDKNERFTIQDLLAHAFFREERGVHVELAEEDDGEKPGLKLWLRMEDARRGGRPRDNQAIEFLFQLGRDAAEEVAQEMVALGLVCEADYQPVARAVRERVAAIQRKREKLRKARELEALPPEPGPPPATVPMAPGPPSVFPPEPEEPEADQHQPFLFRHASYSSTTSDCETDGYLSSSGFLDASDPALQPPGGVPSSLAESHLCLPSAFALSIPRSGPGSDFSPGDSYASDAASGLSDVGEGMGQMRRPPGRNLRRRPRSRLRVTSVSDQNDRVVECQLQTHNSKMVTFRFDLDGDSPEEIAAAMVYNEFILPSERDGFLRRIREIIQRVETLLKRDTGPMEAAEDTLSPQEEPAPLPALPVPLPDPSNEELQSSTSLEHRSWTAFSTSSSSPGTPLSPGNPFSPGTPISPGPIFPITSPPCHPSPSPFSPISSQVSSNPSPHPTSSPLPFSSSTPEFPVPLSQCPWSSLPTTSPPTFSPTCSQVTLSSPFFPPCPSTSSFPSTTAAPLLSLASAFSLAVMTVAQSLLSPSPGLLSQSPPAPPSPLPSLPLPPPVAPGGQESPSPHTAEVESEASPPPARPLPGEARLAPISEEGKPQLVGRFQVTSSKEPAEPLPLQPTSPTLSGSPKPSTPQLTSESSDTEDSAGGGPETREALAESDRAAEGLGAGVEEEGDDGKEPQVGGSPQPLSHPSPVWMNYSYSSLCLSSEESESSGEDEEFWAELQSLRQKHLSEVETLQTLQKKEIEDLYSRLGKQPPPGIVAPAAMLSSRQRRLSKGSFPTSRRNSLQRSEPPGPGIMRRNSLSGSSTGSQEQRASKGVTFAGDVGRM
Chain of kinases (KINOMEscan panel) (Homo sapiens, UniProt Q00532) (Q00532 whole entry): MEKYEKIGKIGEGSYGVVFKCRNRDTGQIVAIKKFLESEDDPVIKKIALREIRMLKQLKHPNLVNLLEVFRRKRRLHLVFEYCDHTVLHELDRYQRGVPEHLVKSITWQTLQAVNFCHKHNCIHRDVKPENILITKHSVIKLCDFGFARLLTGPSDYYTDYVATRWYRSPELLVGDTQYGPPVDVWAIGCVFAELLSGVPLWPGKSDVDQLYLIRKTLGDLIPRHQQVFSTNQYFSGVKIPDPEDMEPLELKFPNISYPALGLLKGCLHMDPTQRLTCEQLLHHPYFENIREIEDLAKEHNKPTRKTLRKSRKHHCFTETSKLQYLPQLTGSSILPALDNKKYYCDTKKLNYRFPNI
Chain of kinases (KINOMEscan panel) (Homo sapiens, UniProt Q13557) (Q13557 whole entry): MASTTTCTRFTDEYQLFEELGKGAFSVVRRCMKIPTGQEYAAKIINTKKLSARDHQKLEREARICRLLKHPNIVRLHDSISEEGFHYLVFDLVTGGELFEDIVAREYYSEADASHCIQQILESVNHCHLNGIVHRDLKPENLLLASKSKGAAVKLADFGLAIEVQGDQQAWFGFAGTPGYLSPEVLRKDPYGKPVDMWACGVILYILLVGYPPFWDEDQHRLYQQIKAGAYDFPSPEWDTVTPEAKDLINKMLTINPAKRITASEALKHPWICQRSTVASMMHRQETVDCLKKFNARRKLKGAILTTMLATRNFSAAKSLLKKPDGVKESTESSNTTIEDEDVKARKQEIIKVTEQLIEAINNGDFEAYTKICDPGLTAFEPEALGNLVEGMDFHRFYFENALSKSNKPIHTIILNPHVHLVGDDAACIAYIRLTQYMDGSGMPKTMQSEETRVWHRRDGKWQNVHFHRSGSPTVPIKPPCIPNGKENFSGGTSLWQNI
Chain of kinases (KINOMEscan panel) (Homo sapiens, UniProt Q9UPE1) (Q9UPE1 whole entry): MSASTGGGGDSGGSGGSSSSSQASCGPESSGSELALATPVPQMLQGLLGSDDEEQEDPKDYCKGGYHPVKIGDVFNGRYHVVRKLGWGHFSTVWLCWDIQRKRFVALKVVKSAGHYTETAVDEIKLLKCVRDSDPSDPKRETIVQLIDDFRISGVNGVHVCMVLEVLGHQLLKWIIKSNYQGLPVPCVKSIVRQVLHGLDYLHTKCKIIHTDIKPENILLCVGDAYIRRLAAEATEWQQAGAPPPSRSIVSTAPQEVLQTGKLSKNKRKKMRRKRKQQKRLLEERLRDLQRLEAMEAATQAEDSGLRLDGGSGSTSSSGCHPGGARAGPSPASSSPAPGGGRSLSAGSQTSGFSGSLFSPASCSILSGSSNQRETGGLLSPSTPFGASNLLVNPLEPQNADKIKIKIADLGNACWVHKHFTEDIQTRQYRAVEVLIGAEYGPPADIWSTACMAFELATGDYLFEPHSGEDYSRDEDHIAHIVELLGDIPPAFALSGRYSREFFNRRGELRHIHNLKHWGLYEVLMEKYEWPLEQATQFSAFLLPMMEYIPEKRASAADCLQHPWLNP

As for `Cc1cccc(-c2nc(Nc3ccncc3)c3ccccc3n2)n1` [NK215], in series [1], the “KINOMEscan WNK4” value is on record as 0. Further, the “KINOMEscan CAMK2D” value in series [2] was 7. In addition, the “KINOMEscan SRPK3” value in series [3] was 15. In addition, in series [4], the “KINOMEscan TLK1” value was 0. Besides, in series [5], the “KINOMEscan CDKL1” value was 47. For the same compound, in series [6], the “KINOMEscan PRKX” value was 0. The “KINOMEscan KIT-autoinhibited” value in series [7] (KIT-autoinhibited) is 0. In addition, in series [7] (KIT), the “KINOMEscan KIT” value is listed as 10. Further, the “KINOMEscan TSSK1B” value in series [8] was 0.
